We go through nine compounds from ChEMBL document CHEMBL3860022, “Do cinnamylideneacetophenones have antioxidant properties and a protective effect toward the oxidation of phosphatidylcholines?” (Eur J Med Chem, 2016).

Holding throughout (type): functional
Assay [1] is described as follows: Antioxidant activity assessed as AAPH free radical scavenging activity by measuring trolox equivalent at 1.5 to 35 umol/L measured every min during 240 mins by fluorescein-based oxygen radical absorption capacity assay.
Assay [2] can be described thus: Antioxidant activity assessed as AAPH free radical scavenging activity by measuring trolox equivalent at 12.5 to 100 umol/L measured every min during 240 mins by fluorescein-based oxygen radical absorption capacity assay.
The nature of assay [3]: Antioxidant activity assessed as inhibition of fenton reaction-mediated PLPC peroxidation by measuring ratio of [dMPC + H]+/[PLPC + H]+ at 1 mg/ml incubated in dark for 1 hr to 7 days by mass spectroscopic analysis.
Assay [4] in a line: Antioxidant activity assessed as inhibition of fenton reaction-mediated PLPC peroxidation at 1 mg/ml incubated in dark for 3 days by mass spectroscopic analysis.
Assay [5] can be described thus: Antioxidant activity assessed as inhibition of fenton reaction-mediated PLPC peroxidation by measuring ratio of oxidized PLPC/unmodified PLPC at 1 mg/ml incubated in dark for 1 hr to 7 days by mass spectroscopic analysis.
The nature of assay [6]: Antioxidant activity assessed as DPPH free radical scavenging activity by measuring trolox equivalent at 1.5 to 35 umol/L after 60 mins. In general terms: Loss of DPPH colour is used to gauge radical scavenging.
Assay [7] in a line: Antioxidant activity assessed as AAPH free radical scavenging activity by measuring trolox equivalent at 0.5 to 10 umol/L measured every min during 240 mins by fluorescein-based oxygen radical absorption capacity assay.
Assay [8] is described as follows: Antioxidant activity assessed as inhibition of fenton reaction-mediated PLPC peroxidation by measuring ratio of [dMPC + H]+/[PLPC + H]+ at 2 mg/ml incubated in dark for 1 hr to 7 days by mass spectroscopic analysis.
Assay [9] is described as follows: Antioxidant activity assessed as inhibition of fenton reaction-mediated PLPC peroxidation at 2 mg/ml incubated in dark for 1 hr by mass spectroscopic analysis.
The nature of assay [10]: Antioxidant activity assessed as DPPH free radical scavenging activity after 60 mins.
The nature of assay [11]: Antioxidant activity assessed as inhibition of fenton reaction-mediated PLPC peroxidation at 2 mg/ml incubated in dark for 3 days by mass spectroscopic analysis.
A short description of assay [12]: Antioxidant activity assessed as AAPH free radical scavenging activity measured every min during 240 mins by fluorescein-based oxygen radical absorption capacity assay.
A short description of assay [13]: Antioxidant activity assessed as inhibition of fenton reaction-mediated PLPC peroxidation by measuring ratio of oxidized PLPC/unmodified PLPC at 2 mg/ml incubated in dark for 1 hr to 7 days by mass spectroscopic analysis.
The nature of assay [14]: Antioxidant activity assessed as AAPH free radical scavenging activity by measuring trolox equivalent at 75 to 350 umol/L measured every min during 240 mins by fluorescein-based oxygen radical absorption capacity assay.
Assay [15] can be described thus: Antioxidant activity assessed as inhibition of fenton reaction-mediated PLPC peroxidation by measuring ratio of dMPC/unmodified PLPC at 1 mg/ml incubated in dark for 1 hr to 7 days by mass spectroscopic analysis.
A short description of assay [16]: Antioxidant activity assessed as DPPH free radical scavenging activity by measuring trolox equivalent at 5 to 35 umol/L after 60 mins.
The nature of assay [17]: Antioxidant activity assessed as DPPH free radical scavenging activity by measuring trolox equivalent at 10 to 100 umol/L after 60 mins.

Structures are written as SMILES. Active and inactive are the calls of the source. No cut-off for these calls is given here.

As to `O=C(/C=C/C=C/c1ccccc1)c1ccc(O)cc1`, the Activity in assay [1] is 4.1 equiv.
In the case of `COc1ccc(C(=O)/C=C/C=C/c2ccccc2)cc1`, the Activity in [2] is 0.12 equiv.
Consider `COc1ccc(/C=C/C=C/C(=O)c2ccccc2)cc1`, for which the inhibition entry in assay [3], in assay [4] and in assay [5] was “Active” throughout. The Activity in [2] amounted to 0.17 equiv.
In general, IC50 refers to the concentration that gives 50% inhibition. Regarding `COc1cc(/C=C/C(=O)CC(=O)/C=C/c2ccc(O)c(OC)c2)ccc1O` [CURCUMIN], the values for the Activity in assay [6] and in assay [7] were 1.42 equiv and 3.9 equiv, respectively. Besides, the inhibition entry in assay [8], in assay [9], in [11] and in [13] was “Active” throughout. Moreover, the concentration for half-maximal inhibition (IC50) was determined as 32.5 µM in assay [10] and 1800 nM in assay [12].
On to `O=C(/C=C/C=C/c1ccccc1)c1ccccc1`, for which the Activity in [14] turned out to be 0.06 equiv. For the same compound, the inhibition result in assay [5] and in [15] was “Active” in each case.
With `N#CC(C#N)C(/C=C/c1ccccc1)CC(=O)c1ccccc1` (stereo not given), the Activity stood at 0.9 equiv in assay [16] and 2.7 equiv in assay [1]. The results for the IC50 in assay [10] and in assay [12] were 74 µM and 3300 nM, respectively.
As for `O=C(/C=C/c1ccccc1)c1ccccc1`, in assay [14], the Activity came to 0.049 equiv.
As to `O=C(/C=C/C=C/c1ccc(O)cc1)c1ccccc1`, the figures for the Activity in assay [17] and in assay [1] were 0.29 equiv and 4.8 equiv, respectively. Besides, the IC50 in [10] stood at 32.5 µM; in assay [12] it was 1200 nM. Besides, the inhibition result in assay [5] and in assay [15] was “Active” in each case.
`Cc1c(C)c2c(c(C)c1O)CCC(C)(C(=O)O)O2` (stereo not given) [TROLOX]: the values for the IC50 in assay [10] and in assay [12] were 52.2 µM and 4200 nM, respectively.
